Experimental findings from patent publication US20090326196A1 (priority 2006, published 2009) are described below.

Square brackets hold non-standard residues; d marks the D form. Peptide text beside a SMILES is read from it. Leu(5,5,5,5',5',5'-F6) = N[C@@H](CC(C(F)(F)F)C(F)(F)F)C(=O)O

Series [1] relates to T1, trypsin.
T1 construct: trypsin (from bovine pancreas, EC 3.4.21.4); from tissue; host or cells: bovine pancreas
The series can be described thus: in vitro. The class given is in vitro ADME, bovine. The conditions noted are these: bovine, isolated enzyme trypsin, pH 7.4. On the procedure:
The proteolytic stability of peptides towards trypsin (from bovine pancreas, EC 3.4.21.4) was determined by an analytical RP-HPLC assay. […] The enzyme concentration (in 1 mM HCl) was determined by absorbance at 280 nm. […] The amount of enzyme was optimized so that kinetics of proteolytic reactions could be assayed by RP-HPLC (detection at 230 nm). The peptides were incubated with trypsin at 37° C. over a period of 3 h. Aliquots (10 μL) were taken at different reaction times, diluted with 0.2% TFA (440 μL) and stored at −80° C. […] The remaining full-length peptide concentration was normalized with respect to the initial concentration.
where A is the normalized concentration of peptides; k is the pseudo first order rate constant; t is the reaction time in mins; and [A]0 is the initial concentration of peptides. Each fragment cleaved from the full-length peptides was identified by ESI-MS so that cleavage patterns could be established and compared.

The subject of series [2] is human red blood cells (hRBC). The class given is cell-based. Here is the method: The selectivity with which the peptides are able to lyse bacterial cells compared to mammalian cells was interrogated by a hemolysis assay against human red blood cells (hRBC). […] Our results are consistent with this trend.
Fresh human red blood cells (hRBCs) were centrifuged at 3,500 rpm and washed with PBS buffer until the supernatant was clear. The hRBCs were then resuspended and diluted to a final concentration of 1% (v/v) in PBS and stored at 4° C. […] An aliquot (50 μL) of supernatant was transferred to a new 96-well plate containing 50 μL H2O in each well. The absorbance at 415 nm was measured using a plate reader. Wells containing melittin at 100-400 μg/mL served as positive controls, and wells containing only buffer and hRBCs served as negative controls. The percentage hemolysis was calculated using the equation:
where complete hemolysis is defined as the average absorbance of all wells containing 100-400 μg/[…] melittin.

By fraction remaining is commonly meant what is left of the initial amount, in per cent. With `CC[C@H](C)[C@H](NC(=O)CN)C(=O)NCC(=O)N[C@@H](CCCCN)C(=O)N[C@@H](Cc1ccccc1)C(=O)N[C@@H](CC(C(F)(F)F)C(F)(F)F)C(=O)N[C@@H](Cc1c[nH]cn1)C(=O)N[C@@H](C)C(=O)N[C@@H](CC(C(F)(F)F)C(F)(F)F)C(=O)N[C@@H](CCCCN)C(=O)N[C@@H](CCCCN)C(=O)N[C@@H](Cc1ccccc1)C(=O)N[C@@H](CC(C(F)(F)F)C(F)(F)F)C(=O)N[C@@H](CCCCN)C(=O)N[C@@H](C)C(=O)N[C@@H](Cc1ccccc1)C(=O)N[C@@H](CC(C(F)(F)F)C(F)(F)F)C(=O)N[C@@H](C)C(=O)N[C@@H](CCC(=O)O)C(=O)N[C@@H](CC(C(F)(F)F)C(F)(F)F)C(=O)N[C@@H](CCSC)C(=O)N[C@@H](CC(N)=O)C(=O)N[C@@H](CO)C(N)=O` [Peptide M2F5] (H-GIGKF[Leu(5,5,5,5',5',5'-F6)]HA[Leu(5,5,5,5',5',5'-F6)]KKF[Leu(5,5,5,5',5',5'-F6)]KAF[Leu(5,5,5,5',5',5'-F6)]AE[Leu(5,5,5,5',5',5'-F6)]MNS-NH2), the fraction remaining at 3 h, 0.25 mM in series [1] was greater than 78%. Further, the “hemolytic activity relative to parent peptide, in words” value in series [2] was “significantly more hemolytic”.
